Measurements taken from ChEMBL document CHEMBL1158030, “Endophyte fungal isolates from Podophyllum peltatum produce podophyllotoxin” (J Nat Prod, 2006).
≈ marks a conversion by molar mass, not a printed value.

Assay: Toxicity in brine shrimp after 24 hrs
Type: organism-based
Conditions: artemia, in vivo; read-out: LD50

COc1cc([C@@H]2c3cc4c(cc3[C@H](O)[C@H]3COC(=O)[C@H]23)OCO4)cc(OC)c1OC [PODOFILOX]
LC50 at 24 h: 2 µg/mL (≈ 4.83 µM)
